{"source": "patent US8669266B2", "about": "“Quinoline-carboxamide derivatives as P2Y12 antagonists” (Sanofi, priority 2007, dated 2014)"}
{"target": "human P2Y12 receptor (Homo sapiens (Human), UniProt Q9H244)", "sequence (Q9H244 whole entry)": "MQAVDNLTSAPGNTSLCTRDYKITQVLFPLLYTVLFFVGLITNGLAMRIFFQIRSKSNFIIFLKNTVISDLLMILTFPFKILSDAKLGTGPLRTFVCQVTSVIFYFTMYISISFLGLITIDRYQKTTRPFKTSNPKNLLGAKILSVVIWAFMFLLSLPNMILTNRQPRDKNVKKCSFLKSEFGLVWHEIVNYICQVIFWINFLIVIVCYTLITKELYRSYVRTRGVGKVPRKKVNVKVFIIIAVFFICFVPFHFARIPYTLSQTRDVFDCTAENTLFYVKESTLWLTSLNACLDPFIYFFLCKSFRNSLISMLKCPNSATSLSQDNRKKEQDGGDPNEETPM", "experiment": "Human P2Y12 recombinant cell membrane binding assay with 33P 2MeS-ADP", "conditions": "CHO cell membranes with recombinant human P2Y12; competition against 33P 2MeS-ADP", "method": "The ability of the compounds of the formula I to inhibit the P2Y12 receptor can be assessed by determining the concentration of the compound of the formula I that binds to the human P2Y12 Recombinant Cell Membrane Binding Assay with 33P 2MeS-ADP.\nHuman P2Y12 Recombinant Cell Membrane Binding Assay\nThe ability of a test compound to bind to the P2Y12 receptor was evaluated in a recombinant cell membrane binding assay. In this competitive binding assay, the test compound competed against a radiolabeled agonist for binding to the P2Y12 receptor, expressed on the cell membrane. Inhibition of binding of the labeled material was measured and correlated to the amount and potency of the test compound.\nAs source of P2Y12, a membrane preparation was prepared from Chinese Hamster Ovary (CHO) cells with recombinant expression of the human P2Y12 receptor according to standard procedures.\nNext, wells were washed four times with 400 μl/well of stop buffer on a plate vacuum. The plate was disassembled and allowed to air dry overnight with the filter side up over night. […] The top of the filter plate was sealed with plastic plate covers. The sealed filter plate were incubated 2 hours at RT. A Microbeta Scintillation Counter was used to measure counts.\nCompounds were diluted as 10 mM DMSO stocks and tested in a four-point, five-fold dilution series run in triplicate beginning at 10 μM, final concentration. Data were analyzed using a four-parameter curve fit with a fixed minimum and maximum experimentally defined as the average positive and negative controls on each plate.", "units": {"IC50": "nM"}}
{"molecule": "CCOC(=O)[C@@H]1CCCN1C(=O)COc1cc(C(=O)N[C@@H](CCC(=O)O)C(=O)N2CCN(C(=O)OCC)CC2)nc2cc(C)ccc12", "note": "[Example 11, 4-[(S)-4-Carboxy-2-({4-[2-((S)-2-ethoxycarbonyl-pyrrolidin-1-yl)-2-oxo-ethoxy]-7-methyl-quinoline-2-carbonyl}-amino)-butyryl]-piperazine-1-carboxylic acid ethyl ester]", "IC50": 132}
{"molecule": "CCOC(=O)N1CCN(C(=O)[C@H](CCC(=O)O)NC(=O)c2cc(OCC(=O)N3CCC[C@H]3C(=O)NCC(F)(F)F)c3ccccc3n2)CC1", "note": "[Example 121, 4-{(S)-4-Carboxy-2-[(4-{2-oxo-2-[(S)-2-(2,2,2-trifluoro-ethylcarbamoyl)-pyrrolidin-1-yl]-ethoxy}-quinoline-2-carbonyl)-amino]-butyryl}-piperazine-1-carboxylic acid ethyl ester]", "IC50": 67}
{"molecule": "CCOC(=O)N1CCN(C(=O)[C@H](CCC(=O)O)NC(=O)c2cc(OCC(=O)N3CCC[C@H]3C(=O)NC3CCC3)c3cc(F)c(F)cc3n2)CC1", "note": "[Example 196, 4-[(S)-4-Carboxy-2-({4-[2-((S)-2-cyclobutylcarbamoyl-pyrrolidin-1-yl)-2-oxo-ethoxy]-6,7-difluoro-quinoline-2-carbonyl}-amino)-butyryl]-piperazine-1-carboxylic acid ethyl ester]", "IC50": 65}
{"tested_on": "human platelet rich plasma", "experiment": "Inhibition of human platelet aggregation, \"Born\"-method in single cuvettes (ADP-induced, platelet rich plasma)", "type": "cell-based", "conditions": "Platelet, 0.1 h, human PRP, aggregation induced by ADP, measured over 6 minutes at 37° C.", "method": "(§1) Alternatively to a binding assay which measures a compound's ability to bind to the P2Y12 receptor, the effect on cellular function was also determined. This ability of the compound was evaluated in two platelet aggregation assays: in 96-well plates and with the “Born”-method using single cuvettes.\n(§2) Whole blood was collected from healthy volunteers using 20 ml syringes containing 2 ml of buffered Citrate. The anticoagulated whole blood was transferred into 15 ml polypropylene conical tubes (10 ml per tube). The tubes were centrifuged for 15 minutes at 340×g at RT without using the centrifuge brake. This procedure leads to a pellet of cellular components and a supernatant of platelet rich plasma (PRP). The PRP layer was collected from each tube and pooled for each donor. To avoid carry over of cellular components following centrifugation, approximately 5 ml of PRP was left in the tube. The platelet concentration was determined using a Coulter Counter.\n(§3) The 15 ml tubes containing the pellet of cellular components were centrifuged again for 10 minutes at 1940×g. This pelleted out most particulate blood constituents remaining, leaving a layer of Platelet Poor Plasma (PPP). The PPP was collected for each donor. The PRP layer, previously set aside, was diluted with PPP to a final concentration of approximately 3×E8 platelets/ml with the PPP.\n(§4) The human platelet aggregation assay is performed in single use cuvettes using the platelet aggregation profiler (PAP-4 or -8, Bio/Data corporation).\n(§5) In the assay cuvette 4 μl of test compound at 100× final concentration in DMSO is mixed with 392 μl fresh PRP and incubated for 2 minutes at 37° C. with 1.200 rpm stirring. Following that incubation period, 4 μl of 250 μM ADP is added to the reaction mix. This addition of ADP is sufficient to induce aggregation in the absence of an inhibitor. After that aggregation is measured over 6 minutes at 37° C. with 1.200 rpm stirring. Results of the assay are expressed as % inhibition, and are calculated using maximum aggregation (Tmax) or area under curve (AUC) of the absorbance over 6 minutes.", "units": {"IC50": "nM"}}
{"molecule": "CCOC(=O)N1CCN(C(=O)[C@H](CCC(=O)O)NC(=O)c2cc(OCC(=O)N3CCC[C@H]3C(=O)NC3CC3)c3ccc(C)cc3n2)CC1", "note": "[Example 3, 4-[(S)-4-Carboxy-2-({4-[2-((S)-2-cyclopropylcarbamoyl-pyrrolidin-1-yl)-2-oxo-ethoxy]-7-methyl-quinoline-2-carbonyl}-amino)-butyryl]-piperazine-1-carboxylic acid ethyl ester]", "IC50": 180}
{"molecule": "CCOC(=O)N1CCN(C(=O)[C@H](CCC(=O)O)NC(=O)c2cc(OCC(=O)N3CCC[C@H]3C(=O)O)c3ccc(C)cc3n2)CC1", "note": "[Example 17, 4-[(S)-4-Carboxy-2-({4-[2-((S)-2-carboxy-pyrrolidin-1-yl)-2-oxo-ethoxy]-7-methyl-quinoline-2-carbonyl}-amino)-butyryl]-piperazine-1-carboxylic acid ethyl ester]", "IC50": 240}
{"molecule": "CCOC(=O)N1CCN(C(=O)[C@H](CCC(=O)O)NC(=O)c2cc(OCC(=O)N3CCC(S(C)(=O)=O)C3)c3ccc(C)cc3n2)CC1", "note": "(stereo partly drawn) [Example 18, 4-[(S)-4-Carboxy-2-({4-[2-(3-methanesulfonyl-pyrrolidin-1-yl)-2-oxo-ethoxy]-7-methyl-quinoline-2-carbonyl}-amino)-butyryl]-piperazine-1-carboxylic acid ethyl ester]", "IC50": 160}
{"molecule": "CCOC(=O)N1CCN(C(=O)[C@H](CCC(=O)O)NC(=O)c2cc(OCC(=O)N3CC[C@H](CO)C3)c3ccc(C)cc3n2)CC1", "note": "[Example 50, 4-[(S)-4-Carboxy-2-({4-[2-((S)-3-hydroxymethyl-pyrrolidin-1-yl)-2-oxo-ethoxy]-7-methyl-quinoline-2-carbonyl}-amino)-butyryl]-piperazine-1-carboxylic acid ethyl ester]", "IC50": 590}
{"molecule": "CCOC(=O)N1CCN(C(=O)[C@H](CCC(=O)O)NC(=O)c2cc(OCC(=O)N3CC(O)CC3C(=O)OC)c3ccccc3n2)CC1", "note": "(stereo partly drawn) [Example 71, 4-[(S)-4-Carboxy-2-({4-[2-(4-hydroxy-2-methoxycarbonyl-pyrrolidin-1-yl)-2-oxo-ethoxy]-quinoline-2-carbonyl}-amino)-butyryl]-piperazine-1-carboxylic acid ethyl ester]", "IC50": 310}
{"molecule": "CCOC(=O)[C@@H]1C[C@@H](O)CN1C(=O)COc1cc(C(=O)N[C@@H](CCC(=O)O)C(=O)N2CCN(C(=O)OCC)CC2)nc2ccccc12", "note": "[Example 75, 4-[(S)-4-Carboxy-2-({4-[2-((2S,4R)-2-ethoxycarbonyl-4-hydroxy-pyrrolidin-1-yl)-2-oxo-ethoxy]-quinoline-2-carbonyl}-amino)-butyryl]-piperazine-1-carboxylic acid ethyl ester]", "IC50": 190}
{"molecule": "CCOC(=O)N1CCN(C(=O)[C@H](CCC(=O)O)NC(=O)c2cc(O[C@H](C)C(=O)N3CCC[C@H]3C(=O)NC3CCCC3)c3ccc(C)cc3n2)CC1", "note": "[Example 294, 4-[(S)-4-Carboxy-2-({4-[(R)-2-((S)-2-cyclopentylcarbamoyl-pyrrolidin-1-yl)-1-methyl-2-oxo-ethoxy]-7-methyl-quinoline-2-carbonyl}-amino)-butyryl]-piperazine-1-carboxylic acid ethyl ester]", "IC50": 30}
{"molecule": "CCOC(=O)N1CCN(C(=O)[C@H](CCC(=O)O)NC(=O)c2cc(OCC(=O)N3CCCC3c3ccco3)c3ccccc3n2)CC1", "note": "(stereo partly drawn) [Example 317, 4-[(S)-4-Carboxy-2-({4-[2-(2-furan-2-yl-pyrrolidin-1-yl)-2-oxo-ethoxy]-quinoline-2-carbonyl}-amino)-butyryl]-piperazine-1-carboxylic acid ethyl ester]", "IC50": 290}
{"molecule": "CCCCOC(=O)N1CCN(C(=O)CNC(=O)c2cc(OCC(=O)N3CCC[C@H]3C(=O)NC3CCC3)c3ccc(C)cc3n2)CC1", "note": "[Example 435, 4-[2-({4-[2-((S)-2-Cyclobutylcarbamoyl-pyrrolidin-1-yl)-2-oxo-ethoxy]-7-methyl-quinoline-2-carbonyl}-amino)-acetyl]-piperazine-1-carboxylic acid butyl ester]", "IC50": 30}
{"molecule": "CCCCOC(=O)N1CCN(C(=O)[C@H](CCC(=O)O)NC(=O)c2cc(OCC(=O)N3CCC[C@H]3c3ccccc3)c3ccc(C)cc3n2)CC1", "note": "[Example 481, 4-[(S)-4-Carboxy-2-({7-methyl-4-[2-oxo-2-((S)-2-phenyl-pyrrolidin-1-yl)-ethoxy]-quinoline-2-carbonyl}-amino)-butyryl]-piperazine-1-carboxylic acid butyl ester]", "IC50": 80}
{"molecule": "CCCCOC(=O)N1CCN(C(=O)[C@H](CCOC)NC(=O)c2cc(OCC(=O)N3CCC[C@H]3C(=O)NC3CCC3)c3ccc(C)cc3n2)CC1", "note": "[Example 521, 4-[(S)-2-({4-[2-((S)-2-Cyclobutylcarbamoyl-pyrrolidin-1-yl)-2-oxo-ethoxy]-7-methyl-quinoline-2-carbonyl}-amino)-4-methoxy-butyryl]-piperazine-1-carboxylic acid butyl ester]", "IC50": 120}
{"molecule": "CCCCOC(=O)N1CCN(C(=O)CNC(=O)c2cc(OCC(=O)N3CCC[C@H]3C(=O)NC3CCCC3)c3ccc(C)cc3n2)CC1", "note": "[Example 594, 4-[2-({4-[2-((S)-2-Cyclopentylcarbamoyl-pyrrolidin-1-yl)-2-oxo-ethoxy]-7-methyl-quinoline-2-carbonyl}-amino)-acetyl]-piperazine-1-carboxylic acid butyl ester]", "IC50": 20}
{"molecule": "CCCCOC(=O)N1CCN(C(=O)CNC(=O)c2cc(OCC(=O)N3C[C@H](O)C[C@H]3C(=O)NC3CCC3)c3ccc(C)cc3n2)CC1", "note": "[Example 689, 4-[2-({4-[2-((2S,4R)-2-Cyclobutylcarbamoyl-4-hydroxy-pyrrolidin-1-yl)-2-oxo-ethoxy]-7-methyl-quinoline-2-carbonyl}-amino)-acetyl]-piperazine-1-carboxylic acid butyl ester]", "IC50": 0.6}
{"molecule": "CCCCOC(=O)N1CCN(C(=O)[C@H](CCc2nnn(C)n2)NC(=O)c2cc(OCC(=O)N3CCC[C@H]3C(=O)NC3CCC3)c3ccc(C)cc3n2)CC1", "note": "[Example 693, 4-[(S)-2-({4-[2-((S)-2-Cyclobutylcarbamoyl-pyrrolidin-1-yl)-2-oxo-ethoxy]-7-methyl-quinoline-2-carbonyl}-amino)-4-(2-methyl-2H-tetrazol-5-yl)-butyryl]-piperazine-1-carboxylic acid butyl ester]", "IC50": 77}
{"tested_on": "human platelet rich plasma", "experiment": "Inhibition of human platelet aggregation, \"Born\"-method in single cuvettes (ADP-induced, platelet rich plasma)", "type": "cell-based", "conditions": "human PRP, aggregation induced by ADP, measured over 6 minutes at 37° C.", "method": "as §1, §2, §3, §4, §5", "units": {"IC50": "nM"}}
{"molecule": "4-{2-[(7-Methyl-4-{2-oxo-2-[4-(pyrrolidine-1-carbonyl)-piperidin-1-yl]-ethoxy}-quinoline-2-carbonyl)-amino]-acetyl}-piperazine-1-carboxylic acid butyl ester [Example 660]", "IC50": 94}
